Data: ChEMBL document CHEMBL1201862, “PubChem BioAssay data set” (2004)
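Protocol summary: plate cells (96-well), add compound at 5 concentrations, incubate 48 h, interpolate endpoints linearly. The concentration for 50% growth inhibition is given as GI50.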 Calls of active or inactive are those of the source. Rule as the data show it: active = GI50 up to about 1.1 µM and inactive = higher.

Assays:
Experiment in all cases: inhibition of tumour cell growth, NCI panel, 48 h
[1] = test system: HT-29
[2] = test system: NCI-H226
[3] = test system: IGROV-1
[4] = test system: HOP-92
[5] = test system: HCT-116
[6] = test system: SNB-75
[7] = test system: SNB-78
[8] = test system: SF-268
[9] = test system: SF-539
[10] = test system: SNB-19
[11] = test system: 786-0
[12] = test system: Malme-3M
[13] = test system: EKVX
[14] = test system: RPMI-8226
[15] = test system: SK-MEL-5
[16] = test system: UACC-257
[17] = test system: SW-620
[18] = test system: SF-295
[19] = test system: UO-31
[20] = test system: KM12
[21] = test system: CAKI-1
[22] = test system: LOX IMVI
[23] = test system: NCI-H460
[24] = test system: A498
[25] = test system: OVCAR-5
[26] = test system: TK-10
[27] = test system: A549
[28] = test system: RXF 393
[29] = test system: SK-OV-3
[30] = test system: ACHN
[31] = test system: KM-20L2
[32] = test system: DMS-114
[33] = test system: SK-MEL-2
[34] = test system: M14
[35] = test system: HCT-15
[36] = test system: CCRF-CEM
[37] = test system: HL-60
[38] = test system: DLD-1
[39] = test system: MOLT-4
[40] = test system: OVCAR-8
[41] = test system: SN12C
[42] = test system: HCC 2998
[43] = test system: OVCAR-4
[44] = test system: SR
[45] = test system: NCI-H23
[46] = test system: U-251
[47] = test system: K562
[48] = test system: HOP-62
[49] = test system: NCI-H522
[50] = test system: DMS-273
[51] = test system: COLO 205
[52] = test system: HOP-18
[53] = test system: M19-MEL
[54] = test system: LXFL 529
[55] = test system: UACC-62
[56] = test system: SK-MEL-28
[57] = test system: OVCAR-3

## Oc1ccc(Br)cc1/C=N/c1ccc(/N=C/c2cc(Br)ccc2O)cc1
[1]
  GI50: > 100 µM (inactive)
[2]
  GI50: > 100 µM (inactive)
[3]
  GI50: > 100 µM (inactive)
[4]
  GI50: > 100 µM (inactive)
[5]
  GI50: > 100 µM (inactive)
[6]
  GI50: > 100 µM (inactive)
[7]
  GI50: > 100 µM (inactive)
[8]
  GI50: > 100 µM (inactive)
[9]
  GI50: > 100 µM (inactive)
[10]
  GI50: > 100 µM (inactive)
[11]
  GI50: > 100 µM (inactive)
[12]
  GI50: > 100 µM (inactive)
[13]
  GI50: > 100 µM (inactive)
[14]
  GI50: > 100 µM (inactive)
[15]
  GI50: > 100 µM (inactive)
[16]
  GI50: > 100 µM (inactive)
[17]
  GI50: > 100 µM (inactive)
[18]
  GI50: > 100 µM (inactive)
[19]
  GI50: > 100 µM (inactive)
[20]
  GI50: > 100 µM (inactive)
[21]
  GI50: > 100 µM (inactive)
[22]
  GI50: > 100 µM (inactive)
[23]
  GI50: > 100 µM (inactive)
[24]
  GI50: > 100 µM (inactive)
[25]
  GI50: > 100 µM (inactive)
[26]
  GI50: > 100 µM (inactive)
[27]
  GI50: > 100 µM (inactive)
[28]
  GI50: > 100 µM (inactive)
[29]
  GI50: > 100 µM (inactive)
[30]
  GI50: > 100 µM (inactive)
[31]
  GI50: > 100 µM (inactive)
[32]
  GI50: > 100 µM (inactive)
[33]
  GI50: > 100 µM (inactive)
[34]
  GI50: > 100 µM (inactive)
[35]
  GI50: > 100 µM
[36]
  GI50: > 100 µM (inactive)
[37]
  GI50: > 100 µM (inactive)
[38]
  GI50: > 100 µM (inactive)
[39]
  GI50: > 100 µM (inactive)
[40]
  GI50: > 100 µM (inactive)
[41]
  GI50: > 100 µM (inactive)
[42]
  GI50: > 100 µM (inactive)
[43]
  GI50: > 100 µM (inactive)
[44]
  GI50: > 100 µM (inactive)
[45]
  GI50: > 100 µM (inactive)
[46]
  GI50: > 100 µM (inactive)
[47]
  GI50: > 100 µM (inactive)

## O=C1C(c2ccccc2)=C(c2ccccc2)C(c2ccccc2)/C1=C1\C(=O)C(c2ccccc2)=C(c2ccccc2)C1c1ccccc1 (stereo unspecified)
[1]
  GI50: > 100 µM (inactive)
[48]
  GI50: > 100 µM (inactive)
[2]
  GI50: > 100 µM (inactive)
[3]
  GI50: > 100 µM (inactive)
[4]
  GI50: > 100 µM (inactive)
[5]
  GI50: > 100 µM (inactive)
[6]
  GI50: > 100 µM (inactive)
[7]
  GI50: > 100 µM (inactive)
[8]
  GI50: > 100 µM (inactive)
[9]
  GI50: > 100 µM (inactive)
[49]
  GI50: > 100 µM (inactive)
[11]
  GI50: > 100 µM (inactive)
[12]
  GI50: > 100 µM (inactive)
[13]
  GI50: > 100 µM (inactive)
[14]
  GI50: > 100 µM (inactive)
[15]
  GI50: > 100 µM (inactive)
[50]
  GI50: > 100 µM (inactive)
[16]
  GI50: > 100 µM (inactive)
[51]
  GI50: > 100 µM (inactive)
[17]
  GI50: > 100 µM (inactive)
[18]
  GI50: > 100 µM (inactive)
[19]
  GI50: > 100 µM (inactive)
[52]
  GI50: > 100 µM (inactive)
[20]
  GI50: > 100 µM (inactive)
[21]
  GI50: > 100 µM (inactive)
[22]
  GI50: > 100 µM (inactive)
[23]
  GI50: > 100 µM (inactive)
[53]
  GI50: > 100 µM (inactive)
[24]
  GI50: > 100 µM (inactive)
[25]
  GI50: > 100 µM (inactive)
[26]
  GI50: > 100 µM (inactive)
[27]
  GI50: > 100 µM (inactive)
[54]
  GI50: > 100 µM (inactive)
[28]
  GI50: > 100 µM (inactive)
[29]
  GI50: > 100 µM (inactive)
[30]
  GI50: > 100 µM (inactive)
[31]
  GI50: > 100 µM (inactive)
[32]
  GI50: > 100 µM (inactive)
[33]
  GI50: > 100 µM (inactive)
[34]
  GI50: 41.9 µM (inactive)
[35]
  GI50: > 100 µM
[37]
  GI50: > 100 µM (inactive)
[38]
  GI50: > 100 µM (inactive)
[55]
  GI50: > 100 µM (inactive)
[56]
  GI50: > 100 µM (inactive)
[39]
  GI50: > 100 µM (inactive)
[40]
  GI50: > 100 µM (inactive)
[41]
  GI50: > 100 µM (inactive)
[42]
  GI50: > 100 µM (inactive)
[43]
  GI50: > 100 µM (inactive)
[57]
  GI50: > 100 µM (inactive)
[44]
  GI50: > 100 µM (inactive)
[45]
  GI50: > 100 µM (inactive)
[46]
  GI50: > 100 µM (inactive)
